Source: patent publication US20050009908A1, “Aqueous dispersion comprising stable nonoparticles of a water-insoluble active and an excipient like middle chain triglycerides (mct)” (priority 2001, published 2005)
In brackets after ≈: the same amount, converted by molar mass. Like-named read-outs stand apart in the source and are kept apart here.

Test: Solubility of crystalline substance in the inhibitor (HPLC of saturated solution)
Type: physicochemical
Text: The mole fraction solubility of the crystalline substantially water-insoluble substance in the inhibitor (x^S1) is simply the number of moles of substance per mole of inhibitor present in a saturated solution of the substance in the inhibitor. As will be realized the equation above is derived for a two component system of a substance and an inhibitor. In those systems where the inhibitor contains more than one compound (for example in the case of a medium chain triglyceride comprising a mixture of triglycerides such as Miglyol 812N, or where a mixture of inhibitors is used) it is sufficient to calculate x^S1 in terms of the “apparent molarity” of the mixture of inhibitors. The apparent molarity of such a mixture is calculated for a mixture of n inhibitor components to be: [formula] • wherein: a, b . . . n are the weight fraction of each component in the inhibitor mixture (for example for component a this is %w/w component a/100); and • Mwa . . . Mwn is the molecular weight of each component a . . . n in the mixture. • x^S1 is then calculated as: [formula]
The mole-fraction solubility of the felodipine/Miglyol 812N (x^sl in Equation I) was determined by magnetically stirring an excess of crystalline felodipine (approx 2-5 times that required for a saturated solution) in Miglyol 812N (5-25 ml) at 350 rpm (protected from light and sealed under a nitrogen atmosphere) for 2 days at room temperature. The resulting mixture was filtered to remove solids (0.2 μm filter) and then analyzed using BPLC to determine the quantity of felodipine dissolved in the Miglyol 812N. […] Miglyol 812N is a mixture of approximately 60% C8-triglyceride (Mw 471) and 40% C10-triglyceride (Mw 555) and has a density of approximately 0.945 g/cm^3. Thus, the apparent molarity of Miglyol 812N is 945/(0.6*471+0.4*555)=1.9].

[1] = oil or lipid, thermodynamic from solid

mole fraction solubility in Miglyol 812N	mole fraction solubility in Miglyol 812N/1-decanol mixture	solubility [1] [mM]	solubility at 2 days [1] [mM]	solubility at 2 days (Miglyol 812N (medium chain triglyceride mixture), oil or lipid, thermodynamic from solid, room temperature, 2 days stirring, read-out: solubility in Miglyol 812N) [mM]	SMILES
0.00116	0.0103	37 (≈ 12.4 mg/mL)	2.2 (≈ 0.74 mg/mL)	–	CCc1cccc(C)c1CNc1cc(C(N)=O)cn2c(C)c(C)nc12 [8-[(2-ethyl-6-methylbenzyl)amino]-2,3-dimethylimidazo[1,2-a]pyridine-6-carboxamide]
–	–	–	–	69 (≈ 26.5 mg/mL)	CCOC(=O)C1=C(C)NC(C)=C(C(=O)OC)C1c1cccc(Cl)c1Cl (centres unmarked) [felodipine]
